Structure (SMILES)	melting point [°C]
CC(C)Oc1n[nH]c(=O)n1C1CC1	146 to 147
O=[N+]([O-])c1cc(Cl)c(Br)cc1Cl	50 to 53
Cc1nc(N)nc(N)c1N1CCN(c2ccc(C(F)(F)F)cc2)CC1	255 to 258
CCOC(=O)c1cn(-c2ccc(F)c(NC(C)(C)C)n2)c2c(Cl)c(F)c(F)cc2c1=O	207 to 210
Brc1ccccc1-c1c(Br)cccc1Br	95 to 97
COC(=O)C=Cc1ccc(Cl)c(C(F)(F)F)c1	71 to 73
CCC1(C)Cc2cc(OC)c(Cl)c(Cl)c2C1=O (configuration not stated)	121
CN1CC(=O)NC1=NC(=O)Nc1cccc(Cl)c1	180
COc1cc(C2CCN(CC(O)CF)CC2)ccc1Nc1ncc2ccc(-c3ccccc3N(C)S(C)(=O)=O)n2n1 (configuration not stated)	82 to 95
Cc1c(S(N)(=O)=O)c(-c2nnc(S)o2)nn1C	243 to 245
CC1(C)C=C(I)C(=O)C(C)(C)C1	41 to 42
CCCc1nc2c(N)nc3ccccc3c2n1OCc1ccccc1	164 to 166
COCC(=O)Nc1cccc(C2(C3CCN(C(=O)c4ccc(O)cc4)CC3)N=C(N)N(C)C2=O)c1 (configuration not stated)	184 to 187
COc1ccc(OC2CCN(C)C2)c(C(N)=O)c1 (configuration not stated)	85 to 87
Nc1nccc2[nH]cnc12	260 to 262
CCN(C(=O)COC(C)=O)C1=CC(C)(C)CC(C)=C1	38 to 40
Cn1nc(C2(OCC3CCN(C(=O)OC(C)(C)C)CC3)C=CC=CC2)c2ccccc2c1=O (configuration not stated)	167 to 169
CCCCCc1c(C(C)C)nc(C(C)C)c(CNCC)c1-c1ccc(F)cc1	48 to 50
CN1CC23CC(c4ccccc4C2C1=O)c1ccccc13 (configuration not stated)	141 to 146
CSc1cc2c(cc1C(F)(F)F)N(C(=O)Nc1ccc(Oc3ccccc3)nc1)CC2	86 to 88
N=C(N)N(CCCCc1ccc(OCC(=O)Nc2ccccc2)cc1)C(=O)c1nc(Cl)c(N)nc1N	168 to 170
COC(=O)C1=C(C)Nc2c(c(-c3ccccc3)nn2C)C1c1ccc(F)cc1 (configuration not stated)	181 to 183
N#Cc1cc(-c2ccncc2)cnc1Cl	219 to 223
CC(C)Cn1nc(OCCCc2ccc(OC(C)C)cc2OCc2ccc(Cl)cc2Cl)cc1CCC(=O)O	133 to 134

Structure (SMILES)	melting point [°C]
CS(=O)(=O)c1ncc2n1-c1ccc(Cl)cc1C(c1ccccc1F)=[N+]([O-])C2	219 to 220
S=C(NCCCCN(Cc1ccc(Cl)c(Cl)c1)c1ccc(Br)cn1)NCCCn1ccnc1	139 to 141
Cc1ccc2c(c1)C(=O)N(CCN1CCC(c3noc4cc(F)ccc34)CC1)C2=O	138 to 140
CC(C)c1cccc(C(C)C)c1NC(=O)Nc1nnnn1Cc1ccccc1	195 to 197
COC(=O)NC1CC(=O)N(c2cc(Cl)cc(Cl)c2)C1=O (configuration not stated)	136 to 138
FC(F)(F)c1cc(-n2cncn2)c2cccc(C(F)(F)F)c2n1	106 to 107
CCCCN(C(=O)CCC(=O)O)C1CC(C)(C)N(OC2CCCCC2)C(C)(C)C1	110 to 113
O=C(O)[C@@H]1C[C@@H](O)CN1C(=O)OCc1ccc([N+](=O)[O-])cc1	136 to 137
O=C(O)C(NC(=O)C(F)(F)F)c1ccccc1 (configuration not stated)	155 to 157
O=C1NC(=O)C(c2ccccc2)=C1Nc1ccc(OC(F)(F)F)cc1	206
CCOC(=O)c1[nH]c2ccc(Cl)c(F)c2c1S(=O)(=O)c1cc(C)cc(C)c1	224 to 226
CS(=O)(=O)c1ccc(-c2oc(C3CCCCC3)nc2-c2ccc(F)cc2)cc1	127 to 128
Cc1ccc2c(c1)C(=O)C1=NCCCN12	128 to 130
C#Cc1ccnc(-c2cc(N)c(Br)cc2[N+](=O)[O-])c1	226 to 228
Cn1c(Cl)nc2cc(F)ccc21	138 to 141
CN1CCN(c2ncnc3c(NC(=O)c4c(Cl)cccc4Cl)cccc23)C1=O	> 250
CCOC(=O)Cn1c(=S)c2cc(Cl)ccc2n(Cc2ccc(Br)cc2F)c1=O	89 to 90
COC(=O)Nc1cccc(-c2ccc3nncn3n2)c1	210 to 212
COCCn1c(=O)[nH]c2ncc(-c3ccc(O)cc3)nc21	236 to 237
CSc1nc(O)c(-c2ccccc2F)c(O)n1	> 240
Oc1ccc(-c2ccc3cc(O)nc-3o2)cc1	> 300
COC(=O)[C@@H]1CCCCCOc2ccc(cc2)C[C@H](NC(=O)OCc2ccccc2)C(=O)N[C@@H](CC(C)C)C(=O)N1	91 to 93
CC(=O)Nc1ccc(-c2nc3c(s2)C(=O)c2ccccc2C3=O)o1	> 260
CC(=O)OCC1CC(=O)NN=C1c1ccc2c(c1)CCC(=O)N2C (configuration not stated)	149 to 153

Structure (SMILES)	melting point [°C]
CCc1cn(C2CC(O)C(CNC(=O)C(CC)c3ccccc3)O2)c(=O)[nH]c1=O (configuration not stated)	235 to 236
N#CC=Cc1cccc(Br)c1	62
COc1ccccc1Oc1ccc(Cl)cc1C(=O)O	115 to 118
Cn1c(=NC(=S)Nc2ccccc2)n(C)c2ccccc21	245
COc1ccc(-c2cn(C)cc(-c3ccccc3)c2=O)cc1	165
CC1(C)C(=O)NC(=O)c2c1ccc1nc(Nc3c(Cl)cccc3Cl)[nH]c21	290 to 292
Nc1ccc(C(F)(F)F)cc1S(N)(=O)=O	142 to 143
O=c1[nH]c2c3ccccc3c(=CO)c2n2ccnc12	290
COCn1cnc(-c2ccc(OC)cc2)c1-c1ccc(OC)cc1	99 to 101
COc1ccc(S(C)(=O)=O)cc1-c1nc2ccc(C(C)(C)CNC=O)cc2[nH]1	235 to 236
COc1ccc(Oc2ccc(C#CC(C)N(O)C(N)=O)s2)cc1 (configuration not stated)	137 to 138
CCOC(=O)c1nn(-c2c(Cl)cc(C(F)(F)F)cc2Cl)cc1O	140 to 143
CC1(C)Cc2sc3c(c2C1)CCNC3=O	205 to 207
CCOCn1cc(F)c(=O)n(C(=O)c2cccc(C(=O)Oc3nc(OC(=O)c4ccc(Cl)cc4Cl)ccc3C#N)c2)c1=O	140 to 142
Cc1ccn2c(-c3ccnc(-c4ccc(CN5CCOCC5)cc4)c3)c(-c3cccc(C)n3)nc2c1	188
COc1ccc2c(c1)CCC1=C2CCC2(C)C(=O)CC=C12 (configuration not stated)	111 to 113
CCCS(=O)C1(S(=O)(=O)NC(C)(C)C)C=CC=CN1 (configuration not stated)	138 to 140
CCCc1c(-c2cc(=O)c3c(O)c(CCC)c(OCC4=COC(C)(C)O4)cc3o2)ccc(OC)c1O	148
COCCc1nc2c(N)nc3ccccc3c2n1CCOCCNC(=O)c1ccccc1	184 to 187
Cc1ccc(Cn2nc(C(=O)NC3CCCCC3C)cc2-c2ccc(Cl)c(Cl)c2)cc1Cl (configuration not stated)	165
Nc1ccc(Oc2ccc(Oc3ccc(N)cc3)c(P(=O)(c3ccccc3)c3ccccc3)c2)cc1	205 to 208
CCOC(=O)c1ccc(N=C(Nc2ccc(C(=O)OCC)cc2)c2ccc(Cl)cc2)cc1	171 to 172
Cn1c(=O)n(CCCC2(C)OCCO2)c(=O)c2c1ncn2Cc1ccccc1	104 to 105
CCCCN1C(=O)NC(Cc2cc(OC)c(OC)cc2OC)C1=O (configuration not stated)	122

— a melting point compilation (Tetko et al.; mined from patent text by program, amines drawn as free bases though some values may be those of a salt)
